Structures are written as SMILES. Where two headings read alike, the source gives them in different places. Peptide text beside a SMILES is read from it. * marks the point of attachment. Galloyl = O=C(c1cc(O)c(O)c(O)c1)*; X1 = CN(C)c1ccc(C(=O)*)cc1

Consider three compounds from article PMC10610090, “The Synthetic Peptide GA-Hecate and Its Analogs Inhibit Multiple Steps of the Chikungunya Virus Infection Cycle In Vitro” (Pharmaceuticals, 2023).

Data set [1] in a line: MTT cytotoxicity assay in BHK-21 cells. The data set is classed as cell-based. The conditions noted are these: hamster. The protocol: (§1) Cytotoxicity in BHK-21 and Huh-7 cells was evaluated using the 3-(4,5-dimethylthiazol-2-yl)-2,5-diphenyltetrazolium bromide (MTT) assay as previously described. The cells (5 × 10^3 per well) were seeded in 96-well culture plates (TPP, Trasadingen, Switzerland). After 24 h, the cells were incubated with the peptides at concentrations of 1.6, 3.1, 6.3, 12.5, 25, 50, and 100 µM for 24 h. Then, the medium containing the peptides was removed, and 100 µL of MTT (Sigma-Aldrich, St. Louis, MO, USA) diluted in DMEM (Cultilab, Campinas, SP, Brazil) (1 mg/mL) was added to each well of the plate (1 mg/mL). After 30 min of incubation at 37 °C, the medium containing MTT (Sigma-Aldrich, St. Louis, MO, USA) was removed, and 100 µL of dimethylsulfoxide (DMSO, Synth, Diadema, SP, Brazil) was added to the cells. The plate was agitated at 200 rpm. After 5 min, the absorbance was measured at a wavelength of 572 nm on a plate reader (FLUOstar Omega/BMG LABTECH, Ortenberg, Germany). The CC50 values were calculated using GraphPad Prism 5.0 software (GraphPad Software, San Diego, CA, USA).
(§2) All the described experiments were performed in three independent events, each of which was carried out in three (cytotoxicity) and four (antiviral activity) technical replicates. The CC50 and EC50 values were determined by nonlinear regression of the dose-response curves (Log [peptide] × response). The statistical significance was determined employing the paired Student’s t-test for parametric results and the Mann–Whitney test for nonparametric data using GraphPad Prism 5.0 software (GraphPad Software, San Diego, CA, USA). A p-value < 0.05 was considered statistically significant.

The test system of the next data set is CHIKV-NLuc. In kind it is cell-based, Chikungunya virus. The conditions noted are these: CHIKV-NLuc MOI 0.1, 16 h, NLuc activity. How it is done:
Measurement of the activity of the virus-encoded NanoLuciferase (NLuc) reporter was used to evaluate the antiviral activity of the peptides against CHIKV-NLuc at the end of every assay with the peptides. Cells were infected with CHIKV-NLuc, and the supernatant was aspirated 16 h post-infection (h.p.i.), and each well of the plate was washed with PBS solution. Then, 30 µL of Renilla Luciferase Assay Lysis Buffer (Promega, Madison, WI, USA) was added to the cells. After 30 min, 50 μL of substrate for Renilla Luciferase (Renilla Luciferase assay reagent, Promega, Madison, WI, USA) was automatically injected in the wells into the plate reader (FLUOstar Omega/BMG LABTECH, Ortenberg, Germany), and the light intensity reading was performed. The values obtained are shown as the percentage of protein NLuc activity in the control (samples treated with sterile water).
The effects of the peptides on the CHIKV infectious cycle were analyzed as previously described. BHK-21 and Huh-7 cells (1 × 10^4 per well) were seeded in 96-well white culture plates (Greiner Bio-One, Americana, SP, Brazil) for 24 h. Then, the virus at an MOI of 0.1 and the peptides at the MNTC were simultaneously added to the cells. The plate was incubated at 37 °C for 16 h, and then antiviral activity against CHIKV was evaluated through NLuc activity. […] The SI was calculated using the ratio CC50/EC50.
as §2

A short description of data set [2]: MTT cytotoxicity assay in Huh-7 cells. The conditions noted are these: human. In kind it is cell-based. How it is done: as §1, §2
(In general: Tetrazolium assays rely on reduction of a dye to a coloured formazan, in cell work by metabolically active cells.)

For the next data set, the system named is BHK-21 and Huh-7 cells. Nature of the data set: MTT cytotoxicity, maximum nontoxic concentration over both cell lines. The data set is classed as cell-based, hamster; human. How it is done: The cytotoxicity of the peptides GA-Hecate, PSSct1905, and PSSct1910 was evaluated in baby hamster kidney fibroblast cells (BHK-21) and human hepatocarcinoma epithelial cells (Huh-7). We defined the maximum nontoxic concentration (MNTC), expressed in µM, as the highest peptide concentration that kept at least 80% of BHK-21 and Huh-7 cells viable within 24 h.
as §1, with “The plate was agitated at 200 rpm.” left out

In the case of `CC(C)C[C@H](NC(=O)[C@H](C)NC(=O)[C@H](CCCCN)NC(=O)[C@H](CCCCN)NC(=O)[C@H](CC(C)C)NC(=O)[C@H](C)NC(=O)[C@H](CCCCN)NC(=O)[C@H](CCCCN)NC(=O)[C@H](CC(C)C)NC(=O)[C@H](CCCCN)NC(=O)[C@H](CCCCN)NC(=O)[C@H](CC(C)C)NC(=O)[C@H](C)NC(=O)[C@H](CCCCN)NC(=O)[C@H](CCCCN)NC(=O)[C@H](CC(C)C)NC(=O)[C@H](C)NC(=O)[C@H](CCCCN)NC(=O)[C@H](CC(C)C)NC(=O)[C@H](C)NC(=O)[C@H](CC(C)C)NC(=O)[C@H](C)NC(=O)[C@H](Cc1ccccc1)NC(=O)c1cc(O)c(O)c(O)c1)C(N)=O` [GA-Hecate] (Galloyl-FALALKALKKALKKLKKALKKAL-NH2), the figures for the CC50 at 24 h in data set [1] and in data set [2] were 23.3 µM and 221 µM, respectively. The results for the EC50 in the data set with CHIKV-NLuc (BHK-21 cells) and in the data set with CHIKV-NLuc (Huh-7 cells) were 5.7 µM and 4.5 µM, respectively.
Take `CC(C)C[C@H](NC(=O)[C@H](CCCCN)NC(=O)[C@H](CCCCN)NC(=O)[C@H](CC(C)C)NC(=O)[C@H](C)NC(=O)[C@H](CCCCN)NC(=O)[C@H](CCCCN)NC(=O)[C@H](CC(C)C)NC(=O)[C@H](C)NC(=O)[C@H](CCCCN)NC(=O)[C@H](CC(C)C)NC(=O)[C@H](C)NC(=O)[C@H](CC(C)C)NC(=O)[C@H](C)NC(=O)[C@H](Cc1ccccc1)NC(=O)c1cc(O)c(O)c(O)c1)C(=O)O` [PSSct1905, GA-FALALKALKKALKKL-COOH] (Galloyl-FALALKALKKALKKL-OH): the CC50 at 24 h stood at 56.5 µM in data set [1] and 205 µM in data set [2]. Besides, the “increase in the CC50 value compared to GA-Hecate” value in the data set on BHK-21 and Huh-7 cells (more prominent in BHK-21 cells) is “approximately 2 fold”. Besides, the EC50 was determined as 8.4 µM with CHIKV-NLuc (BHK-21 cells) and 7.1 µM with CHIKV-NLuc (Huh-7 cells).
`CC(C)C[C@H](NC(=O)[C@H](C)NC(=O)[C@H](CCCCN)NC(=O)[C@H](CCCCN)NC(=O)[C@H](CC(C)C)NC(=O)[C@H](C)NC(=O)[C@H](CCCCN)NC(=O)[C@H](CCCCN)NC(=O)[C@H](CC(C)C)NC(=O)[C@H](CCCCN)NC(=O)[C@H](CCCCN)NC(=O)[C@H](CC(C)C)NC(=O)[C@H](C)NC(=O)[C@H](CCCCN)NC(=O)[C@H](CCCCN)NC(=O)[C@H](CC(C)C)NC(=O)[C@H](C)NC(=O)[C@H](CCCCN)NC(=O)[C@H](CC(C)C)NC(=O)[C@H](C)NC(=O)[C@H](CC(C)C)NC(=O)[C@H](C)NC(=O)[C@H](Cc1ccccc1)NC(=O)c1ccc(N(C)C)cc1)C(N)=O` [PSSct1910] (X1-FALALKALKKALKKLKKALKKAL-NH2): the results for the CC50 at 24 h in data set [1] and in data set [2] were 5.4 µM and 7.7 µM, respectively. In addition, in the data set with BHK-21 and Huh-7 cells (highest concentration keeping at least 80% of BHK-21 and Huh-7 cells viable within 24 h, MTT), the “MNTC (maximum nontoxic concentration)” value came to 1.6 µM. In addition, the EC50 in the data set on CHIKV-NLuc (BHK-21 cells) came to 1.1 µM; with CHIKV-NLuc (Huh-7 cells), 0.2 µM.

As usually defined, the CC50 is the concentration that lowers cell viability or growth by half. Lower therefore signals greater toxicity to the cells. Usually EC50 stands for the concentration giving half of the maximal effect.
